Assay results taken from paper PMC6615261, “Repurposing Azithromycin and Rifampicin Against Gram-Negative Pathogens by Combination With Peptidomimetics” (Frontiers in Cellular and Infection Microbiology, 2019).

Experiments:
[1] = test system: K. pneumoniae ST258; test: Potentiation of additional antibiotics (COMPAN1F plates), MIC; format: cell-based, Klebsiella pneumoniae; conditions: for MIC of antibiotic in presence of peptidomimetic 1: + 1 μM peptidomimetic 1; for MIC of antibiotic in presence of peptidomimetic 15: + 1 μM peptidomimetic 15; for MIC of antibiotic in presence of peptidomimetic 26: + 1 μM peptidomimetic 26; for MIC: Klebsiella pneumoniae, read-out: MIC of antibiotic alone; for MIC / MIC of antibiotic alone: no peptidomimetic
Description: (§1) Minimal inhibitory concentrations (MICs) of peptidomimetics, antibiotics and their combinations were determined by broth microdilution according to the Clinical Laboratory Standards Institute performance standards (Clinical and Laboratory Standards Institute, [2013]). […] Since rifampicin and azithromycin mainly are used to treat infections with Gram-positive pathogens only CLSI clinical breakpoints were available for such bacteria. […] Potentiation of additional antibiotics by peptidomimetics was determined by using commercial 96-well plates containing varied concentrations of standard antibiotics (COMPAN1F; Trek Diagnostic Systems Inc.). The peptidomimetics were added immediately prior to inoculation with pathogen, and then MICs were determined as above. The MICs of peptidomimetic/antibiotic combinations were determined according to the method above, and the concentration ratios were selected based upon checkerboard results with 2:1 and 1:4 ratio of peptidomimetic with rifampicin or azithromycin, respectively. Minimal bactericidal concentrations (MBCs) were determined by using growth-curve assay plates. MIC plates were prepared as above, and then the plates were incubated at 37°C with continuous shaking. Growth was recorded at 10 min intervals as optical density (OD) at 600 nm during 24 h. At 24 h, for wells without growth, a sample was diluted 10-fold in sterile saline (0.9% sodium chloride) and plated onto MHA, following CLSI guidelines (Clinical and Laboratory Standards Institute, [1999]).

[2] = test system: E. coli ST131; test: as above; format: cell-based, Escherichia coli; conditions: for MIC of antibiotic in presence of peptidomimetic 1: + 0.5 μM peptidomimetic 1; for MIC of antibiotic in presence of peptidomimetic 15: + 0.5 μM peptidomimetic 15; for MIC: Escherichia coli, read-out: MIC of antibiotic alone; for MIC / MIC of antibiotic alone: no peptidomimetic; for MIC of antibiotic in presence of peptidomimetic 26: + 0.25 μM peptidomimetic 26
Description: as §1

[3] = test system: K. pneumoniae ST258; test: Screening of peptidomimetic-antibiotic combinations (growth / growth inhibition); format: cell-based, Klebsiella pneumoniae; parameters: key to Growth in combination with RIF / Growth in combination with AZM: Growth (+); growth inhibition (–); conditions: for Growth in combination with AZM: peptidomimetic 0.5 μM + azithromycin 1 μg/mL; for Growth in combination with RIF: peptidomimetic 0.5 μM + rifampicin 0.5 μg/mL; for Potentiation in the screening, rifampicin or azithromycin: 0.5 μM peptidomimetic
Description: as §1

[4] = test system: MDR E. coli ST131; test: as above; format: cell-based, Escherichia coli; parameters: key to Growth in combination with RIF / Growth in combination with AZM: Growth (+); growth inhibition (–); conditions: for Growth in combination with AZM: peptidomimetic 0.5 μM + azithromycin 1 μg/mL; for Growth in combination with RIF: peptidomimetic 0.5 μM + rifampicin 0.5 μg/mL; for Potentiation in the screening, rifampicin or azithromycin: 0.5 μM peptidomimetic
Description: as §1

Compound | MIC of antibiotic in presence of peptidomimetic 1 [1] [µg/mL] | MIC of antibiotic in presence of peptidomimetic 15 [1] [µg/mL] | MIC of antibiotic in presence of peptidomimetic 26 [1] [µg/mL] | MIC [1] [µg/mL] | MIC of antibiotic in presence of peptidomimetic 1 [2] [µg/mL] | MIC of antibiotic in presence of peptidomimetic 15 [2] [µg/mL] | MIC [2] [µg/mL] | MIC of antibiotic in presence of peptidomimetic 26 [2] | MIC of antibiotic alone [1] [µg/mL] | MIC of antibiotic alone [2] [µg/mL] | Growth in combination with AZM [3] | Growth in combination with RIF [3] | Growth in combination with AZM [4] | Growth in combination with RIF [4] | Potentiation in the screening, rifampicin or azithromycin [3] | Potentiation in the screening, rifampicin or azithromycin [4]
CO/N=C(\C(=O)N[C@@H]1C(=O)N2C(C(=O)O)=C(CSC(=O)c3ccco3)CS[C@H]12)c1csc(N)n1 [Ceftiofur] | >4 | >4 | >4 | > 4 | >4 | >4 | > 4 |  |  |  |  |  |  |  |  | 
O=C(N[C@H](CO)[C@H](O)c1ccc([N+](=O)[O-])cc1)C(Cl)Cl [Chloramphenicol] | >16 | >16 | >16 | > 16 | ≤4 | ≤4 | ≤ 4 | ≤4 µg/mL |  |  |  |  |  |  |  | 
C[C@@H](O)[C@H]1C(=O)N2C(C(=O)O)=C(SCCN=CN)C[C@H]12 [Imipenem] | >8 | >8 | >8 | > 8 | ≤1 | ≤1 | ≤ 1 | ≤1 µg/mL |  |  |  |  |  |  |  | 
Ticarcillin/clavulanic acid [Ticarcillin/clavulanic acid (2:1)] | >64 | >64 | >64 |  | 16 | 32 |  |  | >64 | 64 |  |  |  |  |  | 
Amoxicillin/clavulanic acid [Amoxicillin/clavulanic acid (2:1)] | >32 | >32 | >32 |  | 8 | 8 |  | 8/4 | >32 | 16 |  |  |  |  |  | 
CNC(C)C1CCC(N)C(OC2C(N)CC(N)C(OC3OCC(C)(O)C(NC)C3O)C2O)O1 (stereo not drawn) [Gentamicin] | ≤1 | 2 | ≤1 | 2 | >8 | >8 | > 8 | >8 µg/mL |  |  |  |  |  |  |  | 
CO[C@@]1(NC(=O)Cc2cccs2)C(=O)N2C(C(=O)O)=C(COC(N)=O)CS[C@@H]21 [Cefoxitin] | >16 | >16 | >16 | > 16 | >16 | 4 | 8 |  |  |  |  |  |  |  |  | 
NCC[C@H](O)C(=O)N[C@@H]1C[C@H](N)[C@@H](O[C@H]2O[C@H](CN)[C@@H](O)[C@H](O)[C@H]2O)[C@H](O)[C@H]1O[C@H]1O[C@H](CO)[C@@H](O)[C@H](N)[C@H]1O [Amikacin] | 32 | 32 | 16 | 32 | >32 | 8 | 16 | 8 µg/mL |  |  |  |  |  |  |  | 
Trimethoprim/sulfamethoxazole | >38 | >38 | >38 |  | >38 | >38 |  | >38 µg/mL | >38 | >38 |  |  |  |  |  | 
Ac-(NLys-Trp)8-NH2 [Peptidomimetic 20] |  |  |  |  |  |  |  |  |  |  | + | + | + | – |  | 
Cin-(Lys-Phe)8-NH2 [Peptidomimetic 24] |  |  |  |  |  |  |  |  |  |  | + | + | + | + |  | 
Pam-(Lys-βNspe-hArg-βNspe)-NH2 [Peptidomimetic 9] |  |  |  |  |  |  |  |  |  |  | + | + | + | + | did not exhibit any potentiation activity | did not exhibit any potentiation activity
Ac-(Lys-NTrp)8-NH2 [Peptidomimetic 19] |  |  |  |  |  |  |  |  |  |  | + | + | – | + |  | 
Pam-(Lys-βNspe-hArg-βNspe)3-NH2 [Peptidomimetic 12] |  |  |  |  |  |  |  |  |  |  | + | + | + | + | did not exhibit any potentiation activity | did not exhibit any potentiation activity
Ac-(azaLys-βNspe-Lys-βNspe)4-NH2 [Peptidomimetic 17] |  |  |  |  |  |  |  |  |  |  | + | + | + | + |  | 
Ac-(hArg-βNspe)6-(Trp)2-NH2 [Peptidomimetic 16] |  |  |  |  |  |  |  |  |  |  | + | + | + | + |  | 
Ac-(bNLys-Trp)8-NH2 [Peptidomimetic 21] |  |  |  |  |  |  |  |  |  |  | + | + | + | – |  | 
VNW(NLys)2VL(NLys)2II(NLys)VA(NLys)-NH2 [Peptidomimetic 30] |  |  |  |  |  |  |  |  |  |  | + | + | + | + |  | 
Oct-[(S)-Aoc]-(Lys-βNphe)6-NH2 [Peptidomimetic 42] |  |  |  |  |  |  |  |  |  |  | + | + | + | + |  | 
Ac-(bNLys-bNPhe)8-NH2 [Peptidomimetic 18] |  |  |  |  |  |  |  |  |  |  | + | + | + | + |  | 
